Assay results reported in patent publication US20260109715A1, “IMIDAZOPYRIDINE DERIVATIVES WITH BICYCLIC STRUCTURE” (PUBLIC UNIVERSITY CORPORATION YOKOHAMA CITY UNIVERSITY, priority 2022, published 2026).
Where a name gives a salt, the structure may show the parent alone. Read-outs that look alike come from different tables or passages of the source.

How the values were obtained:
human SMG1 enzyme = human SMG1 enzyme (Homo sapiens, UniProt Q96Q15); test: Measurement of SMG1 kinase activity (ADP-Glo Kinase Assay); format: biochemical; details: purified human SMG1 enzyme 5 nM, Upf1 peptide substrate, ATP 4 μM; qAC50 synonymous with IC50; read-out: Test Example 1 ADP-Glo IC50
human SMG1 enzyme, sequence (Q96Q15 whole entry): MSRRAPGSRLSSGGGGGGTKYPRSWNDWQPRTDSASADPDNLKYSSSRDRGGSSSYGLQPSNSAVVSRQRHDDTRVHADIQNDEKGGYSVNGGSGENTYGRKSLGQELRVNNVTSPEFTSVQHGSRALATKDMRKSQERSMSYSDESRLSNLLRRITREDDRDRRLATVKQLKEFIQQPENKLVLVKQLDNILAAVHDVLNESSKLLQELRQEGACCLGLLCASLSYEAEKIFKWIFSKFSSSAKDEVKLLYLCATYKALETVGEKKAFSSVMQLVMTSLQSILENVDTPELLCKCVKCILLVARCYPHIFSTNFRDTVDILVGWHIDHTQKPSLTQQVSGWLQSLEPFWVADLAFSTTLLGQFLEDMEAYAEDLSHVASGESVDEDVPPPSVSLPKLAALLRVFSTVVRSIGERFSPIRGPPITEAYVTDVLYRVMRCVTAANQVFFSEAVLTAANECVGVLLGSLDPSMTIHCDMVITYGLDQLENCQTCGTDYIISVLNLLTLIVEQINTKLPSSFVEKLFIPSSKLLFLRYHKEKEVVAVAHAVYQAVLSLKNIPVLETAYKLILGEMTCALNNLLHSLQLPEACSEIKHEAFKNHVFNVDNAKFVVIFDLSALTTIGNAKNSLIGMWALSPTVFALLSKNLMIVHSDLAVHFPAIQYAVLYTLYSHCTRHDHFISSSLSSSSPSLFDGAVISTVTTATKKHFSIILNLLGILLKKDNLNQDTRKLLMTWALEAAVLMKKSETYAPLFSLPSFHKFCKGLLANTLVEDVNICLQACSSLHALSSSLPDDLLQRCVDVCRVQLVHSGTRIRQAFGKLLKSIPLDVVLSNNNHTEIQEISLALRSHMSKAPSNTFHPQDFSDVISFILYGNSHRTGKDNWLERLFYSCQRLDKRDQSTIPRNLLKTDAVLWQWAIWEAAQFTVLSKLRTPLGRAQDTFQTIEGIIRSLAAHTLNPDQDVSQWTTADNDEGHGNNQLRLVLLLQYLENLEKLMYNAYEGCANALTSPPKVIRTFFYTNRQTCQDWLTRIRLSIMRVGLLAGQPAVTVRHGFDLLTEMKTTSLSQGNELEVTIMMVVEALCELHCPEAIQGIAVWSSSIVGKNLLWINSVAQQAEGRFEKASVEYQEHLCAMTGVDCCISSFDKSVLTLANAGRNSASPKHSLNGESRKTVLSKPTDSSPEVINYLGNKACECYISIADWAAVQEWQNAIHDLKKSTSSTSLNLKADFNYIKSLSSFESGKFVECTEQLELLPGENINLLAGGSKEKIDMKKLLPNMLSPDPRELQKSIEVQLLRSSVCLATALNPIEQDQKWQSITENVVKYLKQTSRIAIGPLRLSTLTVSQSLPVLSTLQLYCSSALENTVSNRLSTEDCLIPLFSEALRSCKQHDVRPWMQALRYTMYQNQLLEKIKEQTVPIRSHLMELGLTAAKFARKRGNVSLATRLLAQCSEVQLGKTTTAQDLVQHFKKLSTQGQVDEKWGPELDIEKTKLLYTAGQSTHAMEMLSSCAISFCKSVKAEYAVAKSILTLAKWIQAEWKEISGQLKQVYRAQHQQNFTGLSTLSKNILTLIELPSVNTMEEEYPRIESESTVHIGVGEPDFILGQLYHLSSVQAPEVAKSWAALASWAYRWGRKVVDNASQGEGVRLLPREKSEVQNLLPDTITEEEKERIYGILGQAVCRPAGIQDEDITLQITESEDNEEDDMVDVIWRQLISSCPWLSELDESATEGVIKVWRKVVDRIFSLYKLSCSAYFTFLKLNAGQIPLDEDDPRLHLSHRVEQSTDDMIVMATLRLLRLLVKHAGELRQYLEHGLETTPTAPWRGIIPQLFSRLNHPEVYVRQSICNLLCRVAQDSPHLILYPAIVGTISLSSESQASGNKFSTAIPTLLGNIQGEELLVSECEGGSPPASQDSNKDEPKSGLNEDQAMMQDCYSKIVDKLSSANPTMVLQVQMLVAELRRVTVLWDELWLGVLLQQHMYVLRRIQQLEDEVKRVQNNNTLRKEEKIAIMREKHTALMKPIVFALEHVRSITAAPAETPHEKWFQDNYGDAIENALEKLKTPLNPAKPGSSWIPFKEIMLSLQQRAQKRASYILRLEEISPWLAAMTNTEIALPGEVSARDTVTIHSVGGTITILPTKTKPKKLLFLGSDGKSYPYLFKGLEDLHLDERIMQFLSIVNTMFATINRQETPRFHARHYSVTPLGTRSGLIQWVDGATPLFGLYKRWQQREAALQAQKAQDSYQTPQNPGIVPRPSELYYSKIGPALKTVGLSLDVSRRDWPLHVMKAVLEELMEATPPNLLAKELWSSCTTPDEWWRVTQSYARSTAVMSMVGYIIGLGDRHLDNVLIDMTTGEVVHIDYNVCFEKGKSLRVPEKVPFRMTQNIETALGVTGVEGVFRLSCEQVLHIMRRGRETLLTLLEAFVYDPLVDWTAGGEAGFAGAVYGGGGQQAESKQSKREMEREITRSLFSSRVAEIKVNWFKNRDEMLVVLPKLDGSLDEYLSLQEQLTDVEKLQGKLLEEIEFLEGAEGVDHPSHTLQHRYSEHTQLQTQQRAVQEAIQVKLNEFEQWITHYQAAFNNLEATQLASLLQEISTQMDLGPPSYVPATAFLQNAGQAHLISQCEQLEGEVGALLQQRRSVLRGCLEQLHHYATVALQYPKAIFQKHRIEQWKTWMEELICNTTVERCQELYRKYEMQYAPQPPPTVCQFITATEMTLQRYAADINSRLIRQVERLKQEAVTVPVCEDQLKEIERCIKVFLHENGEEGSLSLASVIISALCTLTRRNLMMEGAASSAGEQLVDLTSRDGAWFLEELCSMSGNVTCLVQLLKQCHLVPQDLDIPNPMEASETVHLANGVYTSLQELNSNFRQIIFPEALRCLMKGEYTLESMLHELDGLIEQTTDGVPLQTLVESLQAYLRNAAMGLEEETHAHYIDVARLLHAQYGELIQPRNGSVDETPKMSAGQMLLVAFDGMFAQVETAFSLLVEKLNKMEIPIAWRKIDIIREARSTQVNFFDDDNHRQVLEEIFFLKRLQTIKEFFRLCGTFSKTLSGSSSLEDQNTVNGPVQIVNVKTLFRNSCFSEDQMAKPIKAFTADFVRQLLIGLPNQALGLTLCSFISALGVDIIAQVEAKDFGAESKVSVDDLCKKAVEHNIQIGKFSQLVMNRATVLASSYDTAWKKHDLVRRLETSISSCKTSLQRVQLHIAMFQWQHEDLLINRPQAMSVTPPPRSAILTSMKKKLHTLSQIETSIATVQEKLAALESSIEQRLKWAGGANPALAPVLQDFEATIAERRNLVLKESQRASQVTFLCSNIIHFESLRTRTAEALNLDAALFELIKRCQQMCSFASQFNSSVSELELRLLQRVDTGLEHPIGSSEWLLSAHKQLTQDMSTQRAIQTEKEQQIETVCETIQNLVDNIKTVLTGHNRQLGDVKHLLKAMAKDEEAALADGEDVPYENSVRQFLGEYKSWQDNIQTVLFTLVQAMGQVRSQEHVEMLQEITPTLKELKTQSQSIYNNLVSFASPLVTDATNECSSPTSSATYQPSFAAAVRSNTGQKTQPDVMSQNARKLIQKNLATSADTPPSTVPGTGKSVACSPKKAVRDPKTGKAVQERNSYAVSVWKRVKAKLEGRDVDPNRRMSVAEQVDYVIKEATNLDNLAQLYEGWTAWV
Text: The SMG1 kinase inhibitory activity of a compound of the present invention or a pharmaceutically acceptable salt thereof can be measured, for example, by the method described below. Using purified human SMG1 protein and a substrate peptide as materials, the kinase activity can be measured by the ADP-Glo Kinase Assay; the SMG1 kinase inhibitory activity of a test substance can be evaluated by comparing the kinase activity in the presence and absence of the test substance.
The reaction was performed by the ADP-Glo Kinase Assay (Promega, catalog number V9102) using a 384-well plate under the conditions of an assay buffer (100 mM HEPES (pH 7.5), 50 mM NaCl, 10 mM MnCl2, 0.01% BSA, 0.1% Tween 20.5 mM TCEP). After incubating a test substance (DMSO solution; final DMSO concentration: 1%) and purified human SMG1 enzyme (Genes Dev. 2011 Jan. 15; 25(2): 153-164, produced by Daiichi Sankyo RD Novare Co., Ltd.; final concentration: 5 nM) at room temperature for 15 minutes, a substrate, Upf1 peptide (Biotin-(PEG8) QIDVALSQDSTYQG, produced by Eurofins genomics; final concentration: 8 μg/mL), and ATP (Promega: 4 μM) were added, and the mixture was reacted at room temperature for 60 minutes (see Non-Patent Literature R. Melero, et al., Structure Volume 22, Issue 8, 5 Aug. 2014, Pages 1105-1119 for the Upf1 peptide). ADP-Glo Reagent was added, and the mixture was reacted at room temperature for 40 minutes. Kinase Detection Reagent was added, and the mixture was reacted for another 30 minutes. The luminescence intensity was measured using EnVision (PerkinElmer).
The activity value (%) of the test substance-added well was calculated from the following formula, where the average luminescence intensity of the DMSO-added well was 0% and the average luminescence intensity of the SMG1 enzyme-free well was −100%.
The qAC50 (compound concentration showing 50% inhibition, synonymous with IC50) of the test substance was calculated using the activity value (%) at each concentration by Smart fit of Screener (Genedata). Smart fit is a general 4-parameter logistic regression model.

[1] = test system: Snhg1 transcript (NMD target gene) in EMT6 murine breast cancer cell line; test: Measurement of NMD inhibitory activity in cells (increase in Snhg1 transcript, real-time PCR); parameters: species or system mouse; details: 6 hours treatment, concentration giving 1/2 of maximum Snhg1 fold change of positive control, read-out: Test Example 2 Cell-based Snhg1 EC50
Procedure: The NMD inhibitory activity of a compound of the present invention or a pharmaceutically acceptable salt thereof in cells can be measured, for example, by the method described below. EMT6 murine breast cancer cell line is treated with a test substance in vitro for 6 hours, and the increase in the transcript of Snhg1, a known NMD target gene, is quantified as an indicator of NMD inhibition. Quantification is performed by real-time PCR.
NMD inhibitory activity was measured by treating EMT6 murine breast cancer cell line (ATCC) with a test substance and quantifying the increase in the transcript of Snhg1, an NMD target gene (see F. Usui, et al., Scientific Reports volume 9, Article number: 1279 (2019) for the NMD target gene). That is, EMT6 cells were suspended in Waymouth's medium (Gibco, 15% FBS) and seeded in a 96-well plate at 2×10^4 cells/well. The cells were cultured for 1 day. The next day, serially diluted test substance (DMSO solution, final DMSO concentration: 2%) was added. After culturing for 6 hours, the supernatant was removed, and RNA was extracted using the RNeasy 96 kit (QIAGEN, 74182). After synthesizing cDNA using the High Capacity cDNA Reverse Transcription kit (Applied Biosystems, 4368813), the cDNA was mixed with PrimeTime Gene Expression Master Mix (Integrated DNA Technologies) and various probes, and gene expression was quantified using QuantStudio 6 Flex (Thermo Fisher Scientific Inc.). For the probe for the Snhg1 gene, which is an NMD target, Mm.PT.58.44039547 (FAM)(Integrated DNA Technologies) was used, and for the probe for the Tbp gene, which is an endogenous control, Mm00446973_m1 Tbp (VIC-PL) (Applied Biosystems) was used. The relative quantification of Snhg1 transcripts was calculated by the ΔΔCT method, using Thp as an endogenous control and setting the expression level of Snhg1 in untreated wells to 1.
A known NMD inhibitory compound (pyrimidine derivative Example 11i, Bioorg Med Chem Lett. 2012, 22(21), 6636-41) was used as a positive control drug for NMD inhibition. The NMD inhibitory activity of the test substance-added well was calculated as follows: the maximum fold change in Sngh1 expression in the positive control drug-added well relative to that in the untreated well was defined as the maximum NMD inhibitory activity, and the EC50 (compound concentration showing 50%/activity) of the test substance showing a ½-fold change was calculated by the GROWTH function of Microsoft Excel.

Row | IC50 (human SMG1 enzyme) | EC50 [1] | EC50 ([1]; Mus musculus) | Compound
1 | 1.9 nM | 40 nM |  | 5-(2-chloro-6-fluorophenyl)-3-(6-chloro-1H-imidazo[4,5-c]pyridin-2-y1)-1,6-naphthyridin-2(1H)-one [Example 30]
2 | 4.9 nM |  | 94 nM | C[C@@H]1COCCN1c1nc(Cl)cc2[nH]c(-c3cc4c(C5(C)CC5)nccc4[nH]c3=O)nc12 [Example 2, 3-{6-chloro-4-[(3R)-3-methylmorpholin-4-yl]-1H-imidazo[4,5-c]pyridin-2-yl}-5-(1-methylcyclopropyl)-1,6-naphthyridin-2(1H)-one]
3 | 4.6 nM |  | 161 nM | C[C@@H]1COCCN1c1nc(Cl)cc2[nH]c(-c3cc4cnc(C5=CCCN(C)C5)cc4[nH]c3=O)nc12 [Example 3, 3-{6-chloro-4-[(3R)-3-methylmorpholin-4-yl]-1H-imidazo[4,5-c]pyridin-2-yl}-7-(1-methyl-1,2,5,6-tetrahydropyridin-3-yl)-1,6-naphthyridin-2(1H)-one]
4 | 2.4 nM |  | 41 nM | O=c1[nH]c2ccncc2cc1-c1nc2c(N3CCOC[C@H]3C(F)F)nc(Cl)cc2[nH]1 [Example 4, 3-{6-chloro-4-[(3S)-3-(difluoromethyl)morpholin-4-yl]-1H-imidazo[4,5-c]pyridin-2-yl}-1,6-naphthyridin-2(1H)-one]
5 | 1.4 nM |  | 30 nM | CN(c1nc(Cl)cc2[nH]c(-c3cc4cnccc4[nH]c3=O)nc12)[C@H]1CC[C@H](O)CC1 [Example 5, 3-{6-chloro-4-[(trans-4-hydroxycyclohexyl)(methyl)amino]-1H-imidazo[4,5-c]pyridin-2-yl}-1,6-naphthyridin-2(1H)-one]
6 | 1.4 nM |  | 8.6 nM | CC(C1CCOCC1)N(C)c1nc(Cl)cc2[nH]c(-c3cc4cnccc4[nH]c3=O)nc12 (stereo not shown) [Example 6, 3-(6-chloro-4-{methyl[1-(tetrahydro-2H-pyran-4-yl)ethyl]amino}-1H-imidazo[4,5-c]pyridin-2-yl)-1,6-naphthyridin-2(1H)-one]
7 | 6 nM |  | 95 nM | C[C@@H](Nc1nc(Cl)cc2[nH]c(-c3cc4c(N5CCN(C)CC5)nccc4[nH]c3=O)nc12)C(F)(F)F [Example 7, 3-(6-chloro-4-{[(2R)-1,1,1-trifluoropropan-2-yl]amino}-1H-imidazo[4,5-c]pyridin-2-yl)-5-(4-methylpiperazin-1-yl)-1,6-naphthyridin-2(1H)-one]
8 | 4 nM |  | 122 nM | NC1CN(c2nc(Cl)cc3[nH]c(-c4cc5cnccc5[nH]c4=O)nc23)CC(F)(F)C1 (stereo not shown) [Example 9, 3-[4-(5-amino-3,3-difluoropiperidin-1-yl)-6-chloro-1H-imidazo[4,5-c]pyridin-2-yl]-1,6-naphthyridin-2(1H)-one trifluoroacetate]
9 | 0.57 nM |  | 43 nM | Cc1cc2[nH]c(=O)c(-c3nc4c(C5CCOCC5)nc(Cl)cc4[nH]3)cc2c(C)n1 [Example 18, 3-[6-chloro-4-(tetrahydro-2H-pyran-4-yl)-1H-imidazo[4,5-c]pyridin-2-yl]-5,7-dimethyl-1,6-naphthyridin-2(1H)-one]
10 | 2 nM |  | 13 nM | CCCc1nc(Cl)cc2[nH]c(-c3cc4c(C)nccc4[nH]c3=O)nc12 [Example 20, 3-(6-chloro-4-propyl-1H-imidazo[4,5-c]pyridin-2-yl)-5-methyl-1,6-naphthyridin-2(1H)-one]
11 | 2.2 nM |  | 76 nM | Nc1cccc(-c2nc(Cl)cc3[nH]c(-c4cc5cnccc5[nH]c4=O)nc23)c1 [Example 24, 3-[4-(3-aminophenyl)-6-chloro-1H-imidazo[4,5-c]pyridin-2-yl]-1H-1,6-naphthyridin-2-one trifluoroacetate]
12 | 1.8 nM |  | 39 nM | O=c1[nH]c2ccncc2cc1-c1nc2c(-c3ccccc3F)nc(Cl)cc2[nH]1 [Example 25, 3-[6-chloro-4-(2-fluorophenyl)-1H-imidazo[4,5-c]pyridin-2-yl]-1,6-naphthyridin-2(1H)-one]
13 | 1 nM |  | 2.8 nM | CCc1nc(Cl)cc2[nH]c(-c3cc4c(-c5ccccc5F)nccc4[nH]c3=O)nc12 [Example 27, 3-(6-chloro-4-ethy1-1H-imidazo[4,5-c]pyridin-2-y1)-5-(2-fluorophenyl)-1,6-naphthyridin-2(1H)-one]
14 | 3 nM |  | 48 nM | Cc1c(OC(F)F)cccc1-c1nccc2[nH]c(=O)c(-c3nc4cnc(Cl)cc4[nH]3)cc12 [Example 33, 3-(6-chloro-1H-imidazo[4,5-c]pyridin-2-y1)-5-[3-(difluoromethoxy)-2-methylpheny1]-1,6-naphthyridin-2(1H)-one]
15 | 1.9 nM |  | 19 nM | [2H]C([2H])([2H])Oc1ccccc1-c1nccc2[nH]c(=O)c(-c3nc4c(C5CC5)nc(Cl)cc4[nH]3)cc12 [Example 39, 3-(6-chloro-4-cyclopropyl-1H-imidazo[4,5-c]pyridin-2-yl)-5-{2-[(^2H3)methyloxy]phenyl}-1,6-naphthyridin-2(1H)-one]
16 | 0.53 nM |  | 11 nM | [2H]C([2H])([2H])Oc1ccccc1-c1nccc2[nH]c(=O)c(-c3nc4c(C(C)O)nc(Cl)cc4[nH]3)cc12 (stereo not shown) [Example 40, 3-[6-chloro-4-(1-hydroxyethyl)-1H-imidazo[4,5-c]pyridin-2-yl]-5-{2-[(^2H3)methyloxy]phenyl}-1,6-naphthyridin-2(1H)-one]
17 | 1.1 nM |  | 4.8 nM | [2H]C([2H])([2H])Oc1ccccc1-c1nccc2[nH]c(=O)c(-c3nc4c(C(C)F)nc(Cl)cc4[nH]3)cc12 (stereo not shown) [Example 41, 3-[6-chloro-4-(1-fluoroethyl)-1H-imidazo[4,5-c]pyridin-2-yl]-5-{2-[(^2H3)methyloxy]phenyl}-1,6-naphthyridin-2(1H)-one]
18 | 2.6 nM |  | 124 nM | [2H]C([2H])([2H])Oc1ccccc1-c1nccc2[nH]c(=O)c(-c3nc4c(CC(=O)NC(C)(C)C)nc(Cl)cc4[nH]3)cc12 [Example 42, N-tert-butyl-2-[6-chloro-2-(5-{2-[(^2H3)methyloxy]phenyl}-2-oxo-1,2-dihydro-1,6-naphthyridin-3-yl)-1H-imidazo[4,5-c]pyridin-4-yl]acetamide]
19 | 0.97 nM |  | 24 nM | [2H]C([2H])([2H])Oc1ccccc1-c1nccc2[nH]c(=O)c(-c3nc4c(N5CCNC(=O)C5)nc(Cl)cc4[nH]3)cc12 [Example 43, 3-[6-chloro-4-(3-oxopiperazin-1-yl)-1H-imidazo[4,5-c]pyridin-2-yl]-5-{2-[(^2H3)methyloxy]phenyl}-1,6-naphthyridin-2(1H)-one]
20 | 0.5 nM |  | 54 nM | [2H]C([2H])([2H])Oc1ccccc1-c1nccc2[nH]c(=O)c(-c3nc4c(N=S(C)(C)=O)nc(Cl)cc4[nH]3)cc12 [Example 44, 3-(6-chloro-4-{[dimethyl(oxide)-A6-sulfanylidene]amino}-1H-imidazo[4,5-c]pyridin-2-yl)-5-{2-[(^2H3)methyloxy]phenyl}-1,6-naphthyridin-2(1H)-one]
